Results from patent US12161657B2, “Combinatorial therapy for use in inducing immunogenic cell death in cancer cells” (priority 2021, dated 2024).

Key:
[1] = tested on: 4T1 (mouse breast cancer); assay: MTS cell viability assay, 4T1 cells; assay type: cell-based; settings: for efficacy in killing cancer cells: 4T1, concentration 6× lower than the ED50 concentrations, FIG. 3a; for EC50: Mus musculus, 4T1, MTS, 48 hours, individual drug, read-out: ED50 in 4T1
Description: (§1) The 50% effective dose (or ED50) for 2-DG, MTX, and WGN (individually) against the cancer cell lines 4T1 (mouse breast cancer), MCF-7 (human breast cancer), THP-1 (human myelomonocytic cancer), and B16-F10 (mouse melanoma) was determined (Table 1). The cell lines were specifically chosen for their extremely aggressive nature. For example, the cell lines have evolved multiple mechanisms of resistance to cell death and are highly metastatic (e.g., equivalent to a stage 4 cancer model). In this assay, a Determination of the ED50 using the MTS cell viability assay
(§2) Analysis of the effects of MTX-2DG-WGN combination on cell growth was performed with an MTS kit (CellTiter 96® AQueous One Solution Cell Proliferation Assay Kit, Promega, Madison, WI, USA) according to the manufacturer's instruction. 4-T1, MCF-7, B16-F10, and THP-1 cells were seeded into 96-well plates at a density of 10×10^3 cells per well with three replicates. The cells were treated as indicated (MTX, 2DG, and WGN were added initially at concentrations of 100 μM, 50 mM, and 200 μM, respectively, followed by serial two-fold dilutions) and incubated for 48 hours at 5% CO2 at 37° C. After 48 h, 20 μL of CellTiter 96® AQueous One Solution MTS (5 mg/mL) (Promega—Madison, WI, USA) was added to each well and incubated at 5% CO2 at 37° C. for an additional 4 hours. Absorbance readings were taken in an Epoch microplate reader at 490 nm. Computed data was compared to untreated and normalized cells. Cells that were not administered any treatment were considered the control group. Cell viability was calculated by the following formula: Cell viability (%)=(average OD in treated group/average OD in control group)×100%. A dose-activity curve with the concentration spectrum was prepared.
(§3) The EC50 was extrapolated from the dose-response graph. The drug concentration that caused 50% maximum effect with regards to cytotoxicity was determined by plotting triplicate data points over a concentration range and calculating values using regression analysis of GraphPad PRISM v8 program.
(§4) MTX, 2-DG, and WGN were tested alone and in combination. […] The combination of all 3 compounds was also tested, along with a negative control (untreated). The results are shown for 4T1 mouse breast cancer cells (FIG. 3a) and MCF7 human breast cancer cells (FIG. 3b).
(§5) The testing protocol was the same as that described for the ED50 noted above.

[2] = tested on: MCF-7 (human breast cancer); assay: MTS cell viability assay, MCF-7 cells; assay type: cell-based; settings: for efficacy in killing cancer cells: MCF7, concentration 6× lower than the ED50 concentrations, FIG. 3b; for EC50: Homo sapiens, MCF7, MTS, 48 hours, individual drug, read-out: ED50 in MCF-7
Description: as §1, §2, §3, §4, §5

[3] = 2-DG used alone; cited from earlier work
[4] = 2-DG administration, patients; cited from earlier work
[5] = tested on: THP-1 (human myelomonocytic cancer); assay: MTS cell viability assay, THP-1 cells; assay type: cell-based; settings: 48 hours, individual drug, read-out: ED50 in THP-1
Description: as §1
(§6) Analysis of the effects of MTX-2DG-WGN combination on cell growth was performed with an MTS kit (CellTiter 96® AQueous One Solution Cell Proliferation Assay Kit, Promega, Madison, WI, USA) according to the manufacturer's instruction. […] Absorbance readings were taken in an Epoch microplate reader at 490 nm. […] Cell viability was calculated by the following formula: Cell viability (%)=(average OD in treated group/average OD in control group)×100%. […]
(§7) The EC50 was extrapolated from the dose-response graph. The drug concentration that caused 50% maximum effect with regards to cytotoxicity was determined by plotting triplicate data points over a concentration range and calculating values using regression analysis of GraphPad PRISM v8 program. […]

B16-F10 (mouse melanoma) = assay: MTS cell viability assay, B16-F10 cells; assay type: cell-based; settings: 48 hours, individual drug, read-out: ED50 in B16-F10
Description: as §1, §6, §7

[6] = tested on: dihydrofolate reductase (DHFR); settings: cited from earlier work
[7] = tested on: 4T1 mouse breast cancer cells 3D cancerspheres; assay: 3D cancersphere viability, 4T1; assay type: cell-based; settings: 4T1 cancerspheres, 48 h treatment; doxorubicin 25 μM, FIGS. 7a, 7b
Description: (§8) A new model for tumor growth in vitro has been established as 3D cultures known as cancerspheres. To evaluate the clinical translatability and predictivity of the novel combinatorial therapy in vivo, 3D cancerspheres suspended in media containing extracellular matrix proteins (ECM) were treated with the combination of MTX, 2-DG, and WGN.
(§9) Mammary tumorspheres were grown using Matrigel® Extracellular Matrix Basement Membrane (Corning, USA). […]
(§10) After 8 days of culture and 48 h treatment, tumorspheres of roughly 50 cells or more were selected for qualitative analysis. […] After 5 min, tumorspheres were analyzed microscopically. […] Dead (non-viable) spheroids were characterized as stained and displaying no luminescence.
(§11) On the 8th day of culture, media from MCF-7 and 4-T1 mammary tumorsphere cultures was changed and cells were then treated with either our novel combinatorial therapy or 25 μM doxorubicin. […] Absorbance readings were taken in an Epoch microplate reader at 490 nm. […] Cell viability was calculated by the following formula: Cell viability (%)=(average OD in treated group/average OD in control group)×100%.

[8] = tested on: MCF-7 human breast cancer cells 3D cancerspheres; assay: 3D cancersphere viability, MCF-7; assay type: cell-based; settings: MCF-7 cancerspheres, 48 h treatment; doxorubicin 25 μM, FIGS. 7c, 7d
Description: as §8, §9, §10, §11

Row | EC50 [1] | EC50 [2] | EC50 [5] | EC50 (B16-F10 (mouse melanoma)) | SMILES | efficacy in killing cancer cells [1] | efficacy in killing cancer cells [2] | concentration needed to be effective when used alone [3] | doses at which adverse effects occur [4] | affinity for DHFR relative to folate [6] | efficacy against 3D cancerspheres [7] | efficacy against 3D cancerspheres [8]
1 | – | – | – | – | OCC1O[C@H](O)C[C@@H](O)[C@@H]1O (mixture of isomers) [2-DG, 2-deoxyglucose] | no effect whatsoever | no effect whatsoever | > 5 mM | above 63 mg/kg | – | – | –
2 | 0.049 µM | 0.049 µM | 1.82 µM | 0.019 µM | CN(Cc1cnc2nc(N)nc(N)c2n1)c1ccc(C(=O)N[C@@H](CCC(=O)O)C(=O)O)cc1 [MTG, Methotrexate] | no effect whatsoever | no effect whatsoever | – | – | about 1000 fold | – | –
3 | 85 µM | 20.2 µM | 83 µM | 76 µM | COc1c(O)cc(O)c2c(=O)cc(-c3ccccc3)oc12 [WGN, Wogonin] | no effect whatsoever | no effect whatsoever | – | – | – | – | –
4 | – | – | – | – | COc1cccc2c1C(=O)c1c(O)c3c(c(O)c1C2=O)C[C@@](O)(C(=O)CO)C[C@@H]3O[C@H]1C[C@H](N)[C@H](O)[C@H](C)O1 [doxorubicin] | – | – | – | – | – | resistant | resistant
